We go through six molecules from ChEMBL document CHEMBL1126532, “Excitatory amino acid receptor atagonists: synthesis and pharmacology of 3-(carboxymethoxy)isoxazoles derived from AMPA” (Bioorg Med Chem Lett, 1993).

Assay [1] has as its target Glutamate receptor ionotropic, AMPA (Rattus norvegicus, UniProt P19490+P19491+P19492+P19493). Put plainly: Binding affinity by measuring displacement of [3H]AMPA from Ionotropic glutamate receptor AMPA in rat cortical slice preparation. A general note: In a radioligand displacement assay an active substance lowers the binding of a labelled ligand.
Assay [2] deals with Glutamate receptor ionotropic, kainate. As to the kind of experiment: Binding affinity by measuring displacement of [3H]KAIN from Ionotropic glutamate receptor kainate in rat cortical slice preparation.
The next assay has as its target Glutamate NMDA receptor. As to the kind of experiment: Binding affinity by measuring displacement of [3H]CPP from NMDA receptor in rat cortical slice preparation.
The target of assay [3] is Glutamate receptor ionotropic, AMPA (Rattus norvegicus) (UniProt P19491+P19492+P19493+P19490). Put plainly: Binding affinity by measuring displacement of [3H]AMPA from Ionotropic glutamate receptor AMPA in rat cortical slice preparation at 100 uM.

One may read the IC50 as the concentration that gives 50% inhibition. A high value points to a need for much substance. For orientation: inhibition means the share of the control response that was lost under treatment.

Turning to `Cc1onc(OCC(=O)O)c1C(N)C(=O)O` (configuration not stated), the IC50 (in assay [1]; in assay [2]; at Glutamate NMDA receptor) was more than 100 µM each time.
Consider `C=C(C)[C@H]1CN[C@H](C(=O)O)[C@H]1CC(=O)O` [KAINIC ACID], for which the IC50 on Glutamate NMDA receptor is more than 100 µM.
In the case of `O=C(O)COc1noc2c1CC(C(=O)O)NC2` (configuration not stated), the IC50 is more than 100 µM in assay [1], more than 100 µM in assay [2] and 16 µM on Glutamate NMDA receptor.
Turning to `Cc1o[nH]c(=O)c1C(N)C(=O)O` (configuration not stated), the IC50 in assay [1] was more than 100 µM; in assay [2] it was more than 100 µM; at Glutamate NMDA receptor, 4.5 µM.
In assay [3], `NC(Cc1c(OCC(=O)O)noc1C(F)(F)F)C(=O)O` (configuration not stated) came in with an inhibition of 40%. The IC50 (in assay [1]; in assay [2]; on Glutamate NMDA receptor) was more than 100 µM each time.
Take `Cc1onc(OCC(=O)O)c1CC(N)C(=O)O` (configuration not stated): the values for the IC50 (in assay [1]; in assay [2]; on Glutamate NMDA receptor) were 90 µM, more than 100 µM and more than 100 µM, respectively.
